Row | Compound | melting point
1 | CSc1nc2cc(Cl)ccc2n1C1CCN(CCCn2c(=O)[nH]c3ccccc32)CC1 | 196 °C
2 | CCOC(=O)/C=C/c1cc(OC)c(OC)c(OC)c1C#N | 150 to 152 °C
3 | COCc1c(C(=O)OC(C)C)ncc2[nH]c3c(c12)C(=O)CCC3 | 243 to 245 °C
4 | CC(C(=O)O)c1ccc(-c2ccc(F)cc2)c(O)c1 (stereo not given) | 138 to 142 °C
5 | O=c1[nH]c2ccc(-c3cccc([N+](=O)[O-])c3)cc2n1Cc1ccccc1 | 202 to 203 °C
6 | CC(C)Cn1c(=O)n(C)c(=O)c2cc(Cc3cccc(F)c3)sc21 | 76 to 78 °C
7 | O=C(Nc1ccc(Cl)c(Cl)c1)NS(=O)(=O)c1ccc2c(c1)C(O)CO2 (stereo not given) | 109 to 112 °C
8 | COc1cc(N)c(I)cc1C(=O)NC1(C)CCN(CCCOc2ccc(F)cc2)CC1 | 144 °C
9 | Cc1nn(C)c(O)c1C(=O)c1ccc(Cl)c(C)c1Cl | 149 to 150 °C
10 | CN(c1ccc(OC(F)(F)F)cc1)c1cc(C(F)(F)F)nc(NN=Cc2ccc(OC(F)(F)F)cc2)n1 | 180 to 182 °C
11 | C[C@@H]1C(=O)C[C@H]2C[C@@H]1OO[C@@]2(C)/C=C/c1c(F)c(F)c(F)c(F)c1F | 128 °C
12 | CN(Cc1ccc2c(Br)c(OCc3nnn[nH]3)ccc2c1)C(=O)c1cn(Cc2ccccc2)c2ccccc12 | 197 to 198 °C
13 | CC1(COc2ccc(CC3SC(=O)NC3=O)cc2)CCC(=O)CC1 (stereo not given) | 134 to 135 °C
14 | COc1ccc(C=CC(C)=O)cc1 | 74 °C
15 | COC(=O)C[C@H](O)CC(=O)C=Cc1c(-c2ccc(F)cc2)c(-c2ccccc2)c(C(=O)Nc2cccc(S(N)(=O)=O)c2)n1C(C)C | 89 to 91 °C
16 | CCc1nc2c(C)cc(C)nc2n1Cc1ccc(C(=C(Cl)c2nnn[nH]2)c2ccccc2)cc1 | 119 to 132 °C
17 | NNc1cc(Nc2ccc(F)c(C(F)(F)F)c2)nc(Cl)n1 | 102 to 103 °C
18 | NS(=O)(=O)c1ccc(-n2cccc2-c2ccc(F)cc2)cc1 | 198 to 199 °C
19 | COc1cc(C(=O)O)ccc1Cc1cn(C)c2ccc(N(C(N)=O)C3CCCC3)cc12 | 203 to 206 °C
20 | O=C(Nc1cnccc1C(=O)O)OCc1cc2cc(-c3ccccc3)ccc2o1 | 236 to 239 °C
21 | O=[N+]([O-])c1ccc(S(=O)CCCCl)cc1 (stereo not given) | 72.5 to 74.5 °C
22 | CCCCC(=O)C1(Nc2ccccc2)CCN(CCc2ccccc2)CC1 | 71.3 °C
23 | Cc1cc(C2C3=C(CCS3)NC3=C2C(=O)CCC3)ccc1F (stereo not given) | > 260 °C
24 | COc1cc(C2=C(c3c(C)[nH]c4ccccc34)C(=O)NC2=O)cc(OC)c1OC | 266 °C
25 | CCCc1cc2c(cc1C=NO)OCO2 | 83 °C

Row | Compound | melting point
26 | Cc1cn(C(C)(C)C(=O)NC(C)(C)C)nc1-c1ccccc1 | 71 to 75 °C
27 | Cc1sc2cc(C(=O)NCC3(SCc4ccccc4)CCNCC3)[nH]c2c1N(C)S(=O)(=O)c1cccs1 | 222 °C
28 | COc1ccc2cc3ccccc3cc2c1 | 182 to 184 °C
29 | Cc1cc(C)n2nc(NS(=O)(=O)c3ccccc3[N+](=O)[O-])nc2n1 | 255 to 256 °C
30 | CNC(=O)n1cnc(C(=O)NC(C)(C)C)c1N | 145 to 147 °C
31 | CCOC(=O)C(C)(C)Oc1ccc(-c2ccc(CCNC(=O)c3ccc(OC)cc3)cc2)cc1 | 149 to 150 °C
32 | CC(=O)Nc1ccccc1CS(=O)c1nccn1Cc1ccccn1 (stereo not given) | 146 to 148 °C
33 | COC(=O)c1[nH]c2c(C)ccc(C)c2c1C(=O)OC | 143 to 144 °C
34 | N#Cc1ccc(S(=O)(=O)c2ccc(O)cn2)cc1 | 225 to 226 °C
35 | NC(=O)c1ccc(N2CCN(Cc3cn4cc(Cl)ccc4n3)CC2)c(Cl)c1 | 254 to 256 °C
36 | CC(C)OC(=O)c1cnc(C(=O)O)cn1 | 149 to 152 °C
37 | O=c1[nH][nH]c(C(F)(F)F)c1Cc1ccc(F)cc1 | 159 to 160 °C
38 | Cc1nc(NC(=N)N)sc1C(=O)N1CC[C@@H](COCC(=O)O)C1 | 136 °C
39 | COc1cc(CN2CCN(C[C@@H](C)O)CC2)ccc1-c1nc2c(N[C@H]3[C@@H](C(N)=O)[C@@H]4C=C[C@H]3C4)c(Cl)cnc2[nH]1 | 157 to 159 °C
40 | CCCC1C(=O)Oc2c(Oc3ccccc3Cl)cccc21 (stereo not given) | 51 to 53 °C
41 | CCOP(=O)(OCC)C(O)c1cccc([N+](=O)[O-])c1 (stereo not given) | 93 to 95 °C
42 | CC(=O)Oc1ccc2c(c1)OC(C)(c1ccccc1)O2 (stereo not given) | 87 to 87.5 °C
43 | CC(C(=O)O)c1ccc(-n2cccn2)cc1 (stereo not given) | 137 to 138 °C
44 | CCc1cc(-c2ccc(Cl)cc2)nc2c(C(=O)Nc3cccc(S(N)(=O)=O)c3)cnn12 | 252 to 253 °C
45 | Nc1nc2c(s1)CN(C(=S)NC(=O)c1ccccc1)CC2 | 158 to 160 °C
46 | CSc1ccc(NC(=O)N(O)C2CCCCC2)cc1 | 151 to 153 °C
47 | CCN(CC)C(=O)n1ccc(S(=O)(=O)c2ccc(C)c(C)c2)n1 | 85 to 86 °C
48 | COC(=O)Cc1cccc(OC)c1OCCCc1cn(-c2ccc(C(=O)O)nn2)nc1C(C)C | 146 to 147 °C
49 | ClCCCOc1ccc(-c2ccc(OCCCCl)cc2)cc1 | 201 °C
50 | COc1cc2c(c3c1OC(C)(C)C3)C(c1cccc(NC(=O)CCCCl)c1)=NC(C)(C)C2 | 146 to 148 °C

Row | Compound | melting point
51 | CCCCc1nc2cc(Cl)cc(C(=O)O)c2n1Cc1ccccc1Cl | 261 to 262 °C
52 | NC(=O)c1ccc(Cl)c2c1CC([N+](=O)[O-])CO2 (stereo not given) | 193 to 194 °C
53 | OCc1cc(Cl)c(O)cc1F | 125 to 127 °C
54 | CCOC(=O)c1sc(SC(C)C)c2c1CCC(N=[N+]=[N-])C2=O (stereo not given) | 118 to 119 °C
55 | CC(C)(C1CCCCC1)C(NC(=O)c1ccc(Cl)cc1)NC(=NC#N)Nc1cccnc1 (stereo not given) | 181 to 183 °C
56 | C=CCOc1cc(OCc2ccccc2)ccc1O | 62 °C
57 | CCc1ccc(C(=O)Nc2ccccc2)cc1Nc1cccc(C(F)(F)F)c1 | 133 to 134 °C
58 | CN1CCN(c2ccnc3c(NC(=O)c4c(Cl)cccc4Cl)cccc23)C1=O | 238 to 242 °C
59 | CCc1cc([N+](=O)[O-])c(N)c([N+](=O)[O-])c1C | 101 to 102 °C
60 | CC(C)[C@H](NC(=O)OCc1ccc2ccccc2n1)C(=O)N[C@@H](Cc1ccccc1)[C@@H](O)C[C@H](Cc1ccccc1)NC(=O)OCc1cccnc1 | 159 to 163 °C
61 | CCCCCCCCCCCCNC(=O)COc1ccc(O)cc1NCC(=O)O | 122 to 125 °C
62 | CSc1nc2cc(C)nn2c2ncccc12 | 190 °C
63 | NNc1nc(Cl)nc2ccc(Cl)cc12 | > 280 °C
64 | CC(O)(CCSc1cc(C(C)(C)C)c(O)c(C(C)(C)C)c1)CC(=O)CCSc1cc(C(C)(C)C)c(O)c(C(C)(C)C)c1 (stereo not given) | 108 to 110 °C
65 | N#Cc1cc(C(O)CN(Cc2ccccc2)Cc2ccccc2)cc2c1NCC2 (stereo not given) | 139 to 140 °C
66 | CCCc1c(OCCCOc2ccc(-c3c[nH]c(SCc4ccccc4)n3)c(OC)c2CCC)ccc2c1OC(C(=O)O)CC2 (stereo not given) | 92 to 97 °C
67 | CCOC(=O)c1cccc2c(-c3ccc(C)cc3)nccc12 | 112 °C
68 | Cc1nn(C)c(NCC(C)(C)C)c1NCc1ccncc1 | 88 to 90 °C
69 | C=C(C)CN(c1ncnc2c1ncn2C1OC(CO)C(O)C1O)C1CCCCC1 (stereo not given) | 110 to 112 °C
70 | CCOC(=O)c1ccc(NC(=O)c2ccccc2C)cc1 | 110 to 115 °C
71 | CCC(=S)C1Cc2c(OC)ccc(OC)c2CO1 (stereo not given) | 99.2 °C
72 | N#Cc1cccc(-c2ccc(C#N)c(Cn3cncn3)c2)c1 | 160 to 161 °C
73 | Cc1c(Br)c2c(c(C)c1NC(=O)CC(C)(C)C)C(c1ccc(C(C)C)cc1)CO2 (stereo not given) | 118 to 119 °C
74 | CC(C)C[C@H](NC(=O)[C@H](Cc1ccccc1)NP(=O)(OCc1ccccc1)OCc1ccccc1)C(=O)O | 90 to 92 °C
75 | CC(C)Oc1cc(-c2[nH]c3cn[nH]c(=O)c3c2Cl)ccc1OC(F)F | 248 to 262 °C

Row | Compound | melting point
76 | CCOC(=O)c1[nH]cc(-c2ccc(F)cc2)c1C(C)C | 94 to 97 °C
77 | Cc1nn(C)c2c1c1oc(=O)c(Sc3ccccc3)c(O)c1c(=O)n2-c1ccc(OC(F)(F)F)cc1 | 136 to 139 °C
78 | COC(=O)C(C)Nc1ccc(F)c(F)c1F (stereo not given) | 41 to 43 °C
79 | CC(C)(C)OC(=O)N[C@@H](CCC(N)=O)C(=O)N1CCN(Cc2ccccc2)CC1 | 158 to 159 °C
80 | CCc1ccc(C2CCCCC2)nc1 | 79 to 81 °C
81 | O=C(O)COc1cc2c(c(Cl)c1Cl)C(=NO)C1(CCCC1)C2 | 228 °C
82 | O=C1CN(c2ccc(Oc3ccccc3)cc2)C(=S)N1c1ccc([N+](=O)[O-])cc1 | 204 °C
83 | O=C(NOC(=O)c1ccccc1)OCc1ccccc1 | 112 °C
84 | CSc1ncccc1NC(=O)CCCCCSc1nc2ccccc2o1 | 127 to 128 °C
85 | COc1cc(Nc2nccc(-c3cccc(NC(C)=O)c3)n2)cc(OC)c1OC | 162 to 164 °C
86 | CCn1c(=O)n(O)c(=O)c2cc(F)c(N3CCCC3)cc21 | 170 to 171 °C
87 | CCOc1ccc2c(-c3ccccc3)c([N+](=O)[O-])oc2c1 | 109 to 111 °C
88 | CC(=O)NC1Cc2ccccc2C1 | 126 to 128 °C
89 | C=CCN(CC=C)Cc1csc(-c2ncn3c2CN(C)C(=O)c2cc(F)ccc2-3)n1 | 125 to 127 °C
90 | CCCOc1ccc(C(=O)Nc2ccc3cc(CN4CCCC4)cnc3c2C)c(F)c1 | 146 °C
91 | Cn1ncc(/C=C/C(=O)Nc2ccc(CC(C)(C)C)cc2)c1-c1ccc(F)cc1 | 150 to 151 °C
92 | O=C1CN2C(=O)C(c3ccccc3)c3cccc(c32)N1 (stereo not given) | 235 °C
93 | CCN(CC)c1ccc2c(-c3ccc(C#Cc4ccccc4)cc3)cc(=O)oc2c1 | 136 to 138 °C
94 | Fc1cc(Cl)ccc1-n1nc2c(c1Cl)CCC2 | 102 to 104 °C
95 | CCOC(=O)COc1ccc(/C=C/c2nc3c(c(=O)n(CC)c(=O)n3CC)n2C)cc1 | 192 °C
96 | CC(=O)C(C(C)=O)C(=O)NS(=O)(=O)c1ccc(C)cc1 | 137 to 140 °C
97 | Nc1cc2[nH]c(=O)c(=O)[nH]c2cc1[N+](=O)[O-] | > 330 °C
98 | Cc1nc2sccn2c1C1=NNC(=O)NC1 | 293 to 295 °C
99 | CCOc1ccc2c(c1)C(Cl)Cc1ccc(F)cc1S2 (stereo not given) | 110 to 111 °C
100 | CO[C@@H]1C=C2C=C3C(=C(C)C(=O)N3Cc3ccccc3)C[C@]2(C)[C@@H](C)[C@H]1O | 45 °C
